# Assays:
# MEG-01 cells [1] = assay: Apoptosis by phosphatidylserine redistribution (FITC-annexin V flow cytometry) in MEG-01 cells; type: cell-based, human; settings: 48 hours; for Percentage of positive cells for phosphatidylserine (cells in apoptosis) in MEG-01 cells: untreated cells 12%
# Procedure: Redistribution of plasma membrane phosphatidylserine is a characteristic of cells undergoing apoptosis (Martin et al., J. Exp. Med., 182:1545, 1995). The redistribution of phosphatidylserine in the plasma membrane during apoptosis was measured by flow cytometry using FITC (fluorescein isothiocyanate)-conjugated annexin V (BD Pharmingen, San Diego, Calif.). MEG-01 cells, a human chronic myelogeneous leukemia cell line positive for the Philadelphia chromosome and having a BCR-ABL gene fusion, were incubated at 2.5×10^5 cells/ml for 48 hours with 5.3, 26.5 and 53.0 μM final concentrations of SEQ ID NO:1, SEQ ID NO:2, SEQ ID NO:5, SEQ ID NO:6 and cholesteryl-TEG phosphoramidite molecule. The percentage of cells in apoptosis after exposure to the SEQ ID NOs:1, 2, 5, 6, or cholesteryl-TEG phosphoramidite treatment is reported in Table 2. The percentage of apoptosis in untreated MEG-01 cells was 12%.
# HIG-82 cells [2] = assay: HIG-82 synovial cell proliferation (MTT reduction); type: cell-based, rabbit; settings: 53 μM, 48 hours
# Procedure: Adherent HIG-82 cells, a synovial cell line, were incubated at 10×10^5 cells/ml for 48 hours with 53 μM (final concentration) of SEQ ID NO:2, SEQ ID NO:3, SEQ ID NO:4, SEQ ID NO:6, SEQ ID NO:7, or SEQ ID NO:8. Cellular proliferation was measured using dimethylthiazol-diphenyl-tetrazolium (MTT) reduction (Mosman et al., J. Immunol. Methods 65:55, 1983). MTT was measured at a wavelength of 570 nm using a multiple spectrophotometer reader (ELX800, Bio-TEK, Instruments Inc., Winooski, Vt.). The percentage of inhibition, calculated as […]
# HIG-82 cells [3] = assay: Apoptosis by nuclear DNA fragmentation (TUNEL, flow cytometry) in HIG-82 cells; type: cell-based, rabbit; settings: 53 μM
# Procedure: Adherent HIG-82 cells were incubated at 1.0×10^5 cells/ml for 48 hours with 53 μM final concentration of SEQ ID NO:1, SEQ ID NO:2, SEQ ID NO:5 or SEQ ID NO:6. Since phosphatidylserine/annexin V detection of apoptosis was not reliable after adherent cell harvesting techniques, such as trypsinization (van Engeland, Cytometry, 31:1, 1998), apoptosis in HIG-82 cells was evaluated using flow cytometry by the detection of fragmented DNA by terminal deoxynucleotidyl transferase enzyme-mediated bromodeoxyuridine triphosphate-biotin nick end-labeling (TUNEL) using a commercial assay (APO-BRDU™ kit; BD Pharmingen). The percentage of cells containing nuclear DNA fragmentation was determined. After 24 hours, untreated HIG-82 cells were essentially negative for nuclear DNA fragmentation.
# MEG-01 cells [4] = assay: Cell cycle stage in MEG-01 cells (propidium iodide flow cytometry); type: cell-based, human; settings: 24 h
# Procedure: To determine a cell cycle stage, various assays and procedures known to one skilled in the art may be employed. One such procedure uses a CYCLETEST™ PLUS DNA commercial kit (Becton Dickinson, Franklin Lakes, N.J.). Briefly, nuclei from cells are obtained by dissolving the cell membrane in a nonionic detergent, eliminating the cell cytoskeleton and nuclear proteins with trypsin, digesting the cellular RNA with RNase, and stabilizing the nuclear chromatin with spermine. Propidium iodide is added to the cell nuclei and their fluorescence was analyzed in a flow cytometer equipped with electronic doublet discrimination capability (FACSCalibur, Becton Dickinson, Franklin Lakes, N.J.). Accumulation of cells in G0/G1, early S (SE), mid S (SM), late S (SL) or G2/M phases of the cell cycle may be analyzed using MODFIT LT software (Verity Software House Inc., Topsham, Mass.), or other appropriate software.
# Exponentially growing MEG-01 cells (2×10^5 cells/ml) were incubated for 24 h with 0 μM (control), 53 μM of SEQ ID NO:2 or 53 μM of SEQ ID NO:6. The cells were collected, centrifuged, and cell cycle stage was determined.
# Hs578T cells = assay: Release of nuclear mitotic apparatus protein (NuMA) by Hs578T cells (ELISA); type: cell-based, human; settings: Hs578T monolayer, 53 μM, 72 hrs; percentage increase
# Procedure: Hs578T cells were cultured as monolayer in negative control conditions or with 53 μM final concentraition of SEQ ID NO:2, 53 μM of SEQ ID NO:6 for 72 hrs. The release of nuclear mitotic apparatus protein (NuMA) was used as a measure of apoptosis. NuMA was determined using a commercial ELISA kit following the manufacturer's protocol. Results are shown in Table 11 and are expressed as the percentage increase in NuMA release compared to control conditions based on optical density measurements.
substance,measurement,setting,value
"5′ OH-GGGAGG-OH 3′ (listed as DNA, chemistry not fully specified) [SEQ ID NO:2]",Percentage of positive cells for phosphatidylserine (cells in apoptosis) in MEG-01 cells,MEG-01 cells [1]; 5.3 μM,12%
same,Percentage of positive cells for phosphatidylserine (cells in apoptosis) in MEG-01 cells,MEG-01 cells [1]; 26.5 μM,12%
same,Percentage of positive cells for phosphatidylserine (cells in apoptosis) in MEG-01 cells,MEG-01 cells [1]; 53.0 μM,12%
same,Induction of apoptosis in MEG-01 cells (in words),"MEG-01 cells [1]; translocation of phosphatidylserine, up to 53.0 μM",inactive
same,Inhibition of proliferation of synovial HIG-82 cells (in words),HIG-82 cells [2],did not inhibit proliferation
same,"Inhibition of HIG-82 cell proliferation, inhibition (%)",HIG-82 cells [2]; MTT,6%
same,Percentage of cells containing DNA fragmentation (cells in apoptosis) in HIG-82 cells,"HIG-82 cells [3]; 48 hours, TUNEL",1%
same,Induction of apoptosis in HIG-82 cells (in words),HIG-82 cells [3]; fragmented nuclear DNA,inactive
same,Induction of cell cycle arrest in MEG-01 cells (in words),MEG-01 cells [4]; 53 μM,inactive
same,% of cells in phase SM,"MEG-01 cells [4]; MEG-01, 53 μM, untreated 10.8",11.6%
same,% of cells in phase SL + G2/M,"MEG-01 cells [4]; MEG-01, 53 μM, untreated 17.8",19.8%
same,% of cells in phase G0/G1 + SE,"MEG-01 cells [4]; MEG-01, 53 μM, untreated 71.4",68.6%
same,NuMA release compared to control (%),Hs578T cells,+8%

# Source: patent US7635686B2, “Therapeutically useful triethyleneglycol cholesteryl oligonucleotides” (Bioniche Life Sciences, Inc., priority 2001, dated 2009)
